Data taken from ChEMBL document CHEMBL1201862, “PubChem BioAssay data set” (2004).
Calls of active or inactive are those of the source. For most assays here, no stated cut-off is given here; in the data, actives have a measured EC50 and inactives only a lower limit.

Assays:
Hexokinase HKDC1 = biological target: T1, Hexokinase HKDC1 (Homo sapiens, UniProt Q2TB90); assay: HKDC1 hexokinase inhibitors, SAR follow-up, biochemical, set 2 (AID 588355); format: functional
T1 sequence (Q2TB90 whole entry): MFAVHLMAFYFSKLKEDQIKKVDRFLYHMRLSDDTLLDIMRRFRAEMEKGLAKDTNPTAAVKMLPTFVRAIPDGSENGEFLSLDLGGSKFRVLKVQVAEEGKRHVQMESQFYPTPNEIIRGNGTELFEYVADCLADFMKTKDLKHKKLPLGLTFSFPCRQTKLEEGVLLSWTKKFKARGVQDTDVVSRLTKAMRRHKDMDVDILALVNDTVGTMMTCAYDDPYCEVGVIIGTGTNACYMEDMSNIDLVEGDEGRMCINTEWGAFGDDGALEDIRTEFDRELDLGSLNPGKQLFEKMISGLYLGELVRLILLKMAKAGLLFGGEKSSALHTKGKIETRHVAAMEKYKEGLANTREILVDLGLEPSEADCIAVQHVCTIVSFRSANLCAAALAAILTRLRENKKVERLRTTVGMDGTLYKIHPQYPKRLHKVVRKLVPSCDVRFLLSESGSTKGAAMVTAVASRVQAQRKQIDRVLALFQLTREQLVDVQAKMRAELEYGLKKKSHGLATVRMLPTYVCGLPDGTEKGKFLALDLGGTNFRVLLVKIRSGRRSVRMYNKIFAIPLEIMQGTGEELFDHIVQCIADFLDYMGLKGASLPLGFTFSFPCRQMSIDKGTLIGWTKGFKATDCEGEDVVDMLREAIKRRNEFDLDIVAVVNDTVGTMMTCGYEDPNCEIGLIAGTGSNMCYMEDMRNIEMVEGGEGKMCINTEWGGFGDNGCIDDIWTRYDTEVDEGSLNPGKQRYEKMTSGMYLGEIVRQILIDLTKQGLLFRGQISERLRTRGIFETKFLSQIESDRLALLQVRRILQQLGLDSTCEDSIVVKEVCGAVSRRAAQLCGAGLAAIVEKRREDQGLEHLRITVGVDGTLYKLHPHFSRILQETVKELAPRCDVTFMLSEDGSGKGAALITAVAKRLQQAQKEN

Hexokinase-1 = biological target: T2, Hexokinase-1 (Homo sapiens, UniProt P19367); assay: HK1 enzyme inhibition by HKDC1 hits, SAR follow-up, selectivity assay for HKDC1 inhibitor project, biochemical, set 2, resazurin fluorescence coupled readout (AID 588356); format: functional
T2 sequence (P19367 whole entry): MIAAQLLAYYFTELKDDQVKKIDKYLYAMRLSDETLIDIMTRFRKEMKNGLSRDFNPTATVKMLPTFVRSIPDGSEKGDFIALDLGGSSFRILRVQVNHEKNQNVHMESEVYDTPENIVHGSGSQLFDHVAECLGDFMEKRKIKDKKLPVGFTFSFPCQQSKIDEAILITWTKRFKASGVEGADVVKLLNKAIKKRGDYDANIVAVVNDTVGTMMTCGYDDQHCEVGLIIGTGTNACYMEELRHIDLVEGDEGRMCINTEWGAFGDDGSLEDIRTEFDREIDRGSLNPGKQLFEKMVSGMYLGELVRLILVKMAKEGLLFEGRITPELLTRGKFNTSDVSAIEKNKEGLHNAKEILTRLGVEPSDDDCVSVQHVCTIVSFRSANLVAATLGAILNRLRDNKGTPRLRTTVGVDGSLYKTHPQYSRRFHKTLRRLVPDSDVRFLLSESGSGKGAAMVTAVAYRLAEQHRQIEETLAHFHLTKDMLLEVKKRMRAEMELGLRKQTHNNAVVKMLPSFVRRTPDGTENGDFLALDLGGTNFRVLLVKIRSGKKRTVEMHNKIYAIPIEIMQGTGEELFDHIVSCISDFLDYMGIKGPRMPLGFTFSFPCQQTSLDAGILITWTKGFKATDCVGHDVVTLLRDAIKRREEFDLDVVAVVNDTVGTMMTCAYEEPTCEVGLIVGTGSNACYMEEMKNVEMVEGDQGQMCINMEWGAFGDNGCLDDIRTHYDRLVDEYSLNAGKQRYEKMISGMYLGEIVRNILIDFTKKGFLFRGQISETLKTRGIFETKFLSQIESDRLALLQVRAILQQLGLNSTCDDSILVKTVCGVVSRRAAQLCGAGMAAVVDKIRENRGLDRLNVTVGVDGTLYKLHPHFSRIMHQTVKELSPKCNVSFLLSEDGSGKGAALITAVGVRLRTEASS

BJ [1] = assay: cytotoxicity toward BJ-TERT fibroblasts, dose response, cell-based, RAS-independent, luminescence (AID 1933); format: functional; conditions: Homo sapiens
[2] = Luminescence Cell-Based Dose Confirmation HTS to Identify Activators of 5'UTR Stem-Loop Driven Alpha-Synuclein mRNA Translation in H4 Neuroglioblastoma Cells. [Related pubchem assays: 1829 (Project Summary), 1814 (Primary HTS)]; format: functional
H4 = assay: Luminescence Cell-Based Dose Response HTS to Identify Activators of 5'UTR Stem-Loop Driven Prion Protein mRNA Translation in H4 Neuroglioblastoma Cells. [Related pubchem assays: 1829 (Project Summary), 1814 (Primary HTS)]; format: functional; conditions: Homo sapiens
BJ [3] = assay: cytotoxicity toward BJ-TERT-LT-ST fibroblasts, dose response, cell-based, RAS-independent, luminescence (AID 1935); format: functional; conditions: Homo sapiens;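 further: BJ fibroblasts immortalized with TERT plus LT and ST oncogenes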
BJ [4] = assay: cytotoxicity toward Ras-transformed BJeLR fibroblasts, dose response, cell-based, alamar blue fluorescence, cherrypicked samples (AID 2631); format: functional; conditions: Homo sapiens;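 further: confirmatory dose-response assay in RAS-dependent BJ fibroblasts engineered with TERT, LT and ST, with cytotoxicity read by fluorescence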
BJ [5] = assay: cells; format: functional, cell-based; conditions: Homo sapiens
[6] = cytotoxicity toward DRD oncogenic fibroblasts, dose response, cell-based, non-viral oncogenic, luminescence (AID 1934); format: functional; conditions: Homo sapiens
[7] = Luminescence Cell-Based Dose Response HTS to Identify Activators of Luciferase Translation or Activity in H4 […] Cells. [Related pubchem assays: 1829 (Project Summary), 1814 (Primary HTS)]; format: functional
Vero = assay: cells; format: functional; conditions: Chlorocebus sabaeus
[8] = biological target: Type-1 angiotensin II receptor (Homo sapiens, UniProt P30556); assay: AT1 receptor antagonists, dose response, selectivity assay for APJ receptor antagonist project, cell-based, uHTS hits (AID 463214); format: functional;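 further: antagonist potency against angiotensin II stimulated AT1 response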
Beta-galactosidase = Beta-galactosidase (Escherichia coli, UniProt Q8VNN2); assay: PubChem AID 485352; format: functional
Chain of Beta-galactosidase (Q8VNN2 whole entry): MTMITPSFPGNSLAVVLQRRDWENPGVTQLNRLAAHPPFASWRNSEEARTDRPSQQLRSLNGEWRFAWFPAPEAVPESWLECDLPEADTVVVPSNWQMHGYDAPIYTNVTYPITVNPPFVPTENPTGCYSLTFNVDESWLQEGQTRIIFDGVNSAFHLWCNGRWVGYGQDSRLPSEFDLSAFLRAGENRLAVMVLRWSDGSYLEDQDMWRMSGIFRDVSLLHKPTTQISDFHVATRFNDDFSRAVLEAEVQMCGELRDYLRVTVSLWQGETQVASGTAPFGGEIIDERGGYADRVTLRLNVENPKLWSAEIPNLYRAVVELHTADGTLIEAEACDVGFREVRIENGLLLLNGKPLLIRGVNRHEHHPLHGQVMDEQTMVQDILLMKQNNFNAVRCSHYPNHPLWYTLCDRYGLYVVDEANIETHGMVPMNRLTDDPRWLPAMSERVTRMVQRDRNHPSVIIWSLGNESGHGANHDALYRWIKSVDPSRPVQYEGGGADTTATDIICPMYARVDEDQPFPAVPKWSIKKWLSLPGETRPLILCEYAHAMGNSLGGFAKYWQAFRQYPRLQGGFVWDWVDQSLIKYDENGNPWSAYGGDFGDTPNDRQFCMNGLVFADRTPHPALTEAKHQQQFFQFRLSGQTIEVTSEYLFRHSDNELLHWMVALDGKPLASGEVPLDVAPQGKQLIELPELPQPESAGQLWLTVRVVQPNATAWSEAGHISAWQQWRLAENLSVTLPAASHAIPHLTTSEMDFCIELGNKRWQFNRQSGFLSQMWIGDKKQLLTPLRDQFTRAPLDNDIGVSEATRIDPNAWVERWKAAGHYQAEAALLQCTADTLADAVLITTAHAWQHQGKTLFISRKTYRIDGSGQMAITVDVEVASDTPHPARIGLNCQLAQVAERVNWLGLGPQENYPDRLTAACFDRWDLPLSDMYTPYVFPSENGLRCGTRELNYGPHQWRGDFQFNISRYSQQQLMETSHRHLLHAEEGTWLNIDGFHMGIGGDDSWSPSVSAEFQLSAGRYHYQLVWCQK

Chain of Type-1 angiotensin II receptor (P30556 whole entry): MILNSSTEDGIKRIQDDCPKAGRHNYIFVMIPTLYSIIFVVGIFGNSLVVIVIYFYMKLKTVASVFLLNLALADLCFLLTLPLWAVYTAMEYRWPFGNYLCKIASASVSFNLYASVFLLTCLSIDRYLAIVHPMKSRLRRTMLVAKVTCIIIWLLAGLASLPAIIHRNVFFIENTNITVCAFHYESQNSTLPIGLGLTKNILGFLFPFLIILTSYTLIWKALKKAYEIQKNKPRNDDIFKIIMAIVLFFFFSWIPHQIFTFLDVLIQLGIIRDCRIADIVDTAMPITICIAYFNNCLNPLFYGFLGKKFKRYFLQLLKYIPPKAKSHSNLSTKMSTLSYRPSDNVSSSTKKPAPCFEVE

In the case of `COc1cc2c(cc1OC)-c1cc(Nc3cccc4ccccc34)nc(=O)n1CC2`, the IC50 (Hexokinase HKDC1) is reported as > 80 µM (inactive) and the IC50 (Hexokinase-1) is reported as > 80 µM (inactive).

For `CN1CCN(C(=O)CCCN2C(=O)/C(=C/c3cccc(Br)c3)SC2=S)CC1`, the EC50 (BJ [1]) was 1.93 µM (active), the EC50 [2] was 13.9 µM (active) and the EC50 (H4) was > 120 µM (not active). The EC50 (BJ [3]) was > 150 µM (inconclusive), the EC50 (BJ [4]) was > 66.7 µM (inactive) and the EC50 (BJ [5]) was > 150 µM (inconclusive). For the same compound, the EC50 [6] was 4.36 µM (active), the EC50 [7] was > 120 µM (not active) and the CC50 (Vero) was > 25 µM (active).

In the case of `COc1cccc(N2CC(C)Cn3c2nc2c3c(=O)n(CCN3CCOCC3)c(=O)n2C)c1` (stereo not drawn), the IC50 [8] is reported as > 40 µM (not active) and the EC50 (Beta-galactosidase) is reported as > 40 µM (inactive).
